What was measured:
wild type seedlings [1] = assay: Anthocyanins content (spectrophotometric); format: in vivo, A. thaliana; design: key to Antho: anthocyanin content as A530 - 2.2*A652
Protocol: Anthocyanins were extracted with propanol:HCl:H2O (81:1:18) for 5 min at room temperature and 3 min at 100° C. Samples are centrifuged for 10 min at 4° C. Supernatants were collected and absorption measured at 530 nm and […]. Anthocyanin content was calculated as A530-2.2A652 (Lange et al., 1971).

Medicago truncatula = assay: Root growth of Medicago truncatula in phosphate deficient medium; format: in vivo; conditions: phosphate 10 μM, MC2 5 μM, 10 days, FIG. 14
Protocol: Medicago truncatula seeds were surface-sterilized as follow: soaking in concentrated sulphuric acid for 10 min, rinsing three times with sterile distilled water, soaking in 10% bleach/0.1% Tween 20 solution for 10 min with gentle agitation and finally by rinsing seeds three times with sterile distilled water. Seeds were germinated 48 h in dark. […] In the phosphate (Pi) deficient medium, NaCl (0.5 mM) was used to replace the equivalent amount of sodium provided by NaH2PO4.). Plants were maintained 10 days under a 14 h light/10 h 150 μm^−2s^−1 dark regime with a temperature of 22/18° C. for light/dark phases in a phytotron.

wild type seedlings [2] = assay: Starch accumulation (Lugol/iodine staining); format: in vivo, A. thaliana; conditions: MC2 5 μM; same response as phosphate deficiency (starch strongly accumulated), FIG. 7
Protocol: Leaves were immersed in ethanol (96%) for 6 h to remove pigment and stained with Lugol solution (Fluka) for 30 min to make the starch granules visible.

phopholipase Dz2 = assay: PLDz::GUS, follow-up of the expression of the gene encoding phospholipase Dz2 (GUS staining); format: in vivo, A. thaliana; conditions: high phosphate medium + MC2 5 μM, FIG. 10
Protocol: pPLDZ2:GUS-GFP cell line is as described by Cruz-Ramirez et al. (Cruz-Ramirez et al., 2006), and expressed a GUS-GFP fusion under the control of the pldz2 promoter. […] Plants were examined for GUS activity by dipping the samples in a GUS staining solution (50 mM sodium phosphate buffer pH 7.0; 0.01% Triton X-100, 1 mM K3Fe(CN)6, 1 mM K4Fe(CN)6, 1 mg/ml 5-dromo-4-chloro-3-indolyl (3-D-GLUCURONIDE (X-Gluc A) and incubated at 37° C. over-night. After staining, the plants were fixed 2 hours in 50 mM sodium phosphate buffer pH 7.0; 1% glutaraldehyde; 4% formaldehyde. In response to phosphate starvation, the lipid metabolism is modified (Benning and Ohta, 2005). Plants preferentially synthesize sulpho- and galacto-lipids instead of phospholipids. Several enzymes are involved in this remobilisation.

PLDζ2 expression (in words) (phopholipase Dz2): strongly expressed
Compound: Cc1cccc(NC=C2C(=O)CC(C)(C)CC2=O)n1 [MC2]
anthocyanins accumulation (in words) (wild type seedlings [1]; MC2 5 μM, FIG. 8): strong accumulation | Antho (wild type seedlings [1]; accumulation of anthocyanes, +P control 46, −P 1008): 454 | growth of roots in a Pi deficient medium (Medicago truncatula): improved | starch accumulation (in words) (wild type seedlings [2]): same response

Reference: patent publication US9028855B2, “Plant additives and uses thereof to modulate the synthesis of membrane glycerolipids in planta” (Commissariat a l'Energie Atomique et aux Energies …, priority 2009, dated 2015)
